Data published in patent US20110110886A1, “SMALL MOLECULE INHIBITORS OF AUTOTAXIN AND METHODS OF USE” (Yale University, priority 2008, published 2011).
Where “and” joins values, the source holds several entries; their conditions need not be identical. Identical values can stand only once. Like-named read-outs stand apart in the source and are kept apart here.

Assays:
[1] = molecular target: T1, ATX (recombinant full-length human ATX), lysoPLD activity (Homo sapiens, UniProt Q13822); assay: Steady-state ATX lysoPLD activity with fluorescent LPC analogue FS-3; format: biochemical; details: for inhibition of ATX lysoPLD activity by GenPlus screen inhibitor analogs / type of inhibition of ATX lysoPLD activity: substrate FS-3; for Ki: substrate FS-3, 37° C.
T1 construct: consistent with a mature, glycosylated form of the enzyme; TEV cleavage site (C); 9-His (C); 6-His (C); made in house; host or cells: High Five insect cells (baculovirus, p-DEST-8)
Experimental: Protein expression and purification: The full length human NPP2 gene (NCBI accession #BC034961) followed by a C-terminal TEV cleavage site and a 9-His and 6-His purification tag was cloned and transferred into a p-DEST-8 baculovirus shuttle vector (Invitrogen), and bacmid DNA was generated by standard methods. […] Three days post infection, the supernatant was adjusted to a final concentration of 50 mM Tris pH 8.0, 5 mM CaCl2, and 1 mM NiSO4 and stirred for 10 min. at room temperature. […] Purified ATX was concentrated to approximately 10 mg mL^−1, and dialyzed into the appropriate assay buffer.
Fluorescence was measured (λex=485 nm, λem=520 nm) on a SpectraMax Gemini XPS at 37° C. under buffer conditions similar to the PDE assays but lacking BSA. […] The spontaneous reaction rates were subtracted from the enzyme catalyzed rates.
The steady-state rates (v) of product formation were obtained by fitting the time courses of absorbance or fluorescence change to linear functions. […] FS-3 hydrolysis product formation was quantitated in arbitrary fluorescence units.
(§1) The Michaelis constants (KM) and the catalytic turnover rate constants (kcat) were obtained by fitting the [substrate]-dependence of v to a rectangular hyperbola in the form of the Briggs-Haldane equation: […]
(§2) in which [S] is [pNP-TMP] or [FS-3]. Inhibitors were treated as reversible inhibitors and analyzed according to the general steady-state linear enzyme inhibitor scheme:
(§3) in which E is ATX, S is pNP-TMP or FS-3 substrate, P are the hydrolysis products, and K1 is the dissociation equilibrium constant for inhibitor binding. The values of α and K1 were obtained by fitting the steady-state rates of product formation (v) to the general inhibition equation: […]
(§4) in which [I] is the inhibitor concentration, kcat is the maximum catalytic turnover rate, and KS is the Michaelis constant of the substrate obtained in the absence of inhibitor.
(§5) The type of inhibition (competitive, noncompetitive, or uncompetitive) depends on the value of α.
(§6) The type of inhibition was assigned if the difference between the r^2 values of the fits to the general inhibition equation (Eq 2) and the specific inhibition (i.e. competitive, noncompetitive or uncompetitive) equations was less than 0.01.

[2] = molecular target: T2, ATX (recombinant full-length human ATX), PDE activity (Homo sapiens, UniProt Q13822); assay: Steady-state ATX phosphodiesterase (PDE) activity with pNP-TMP, absorbance 405 nm; format: biochemical; details: for Ki: 25° C., read-out: KI (dissociation equilibrium constant for inhibitor binding), ATX PDE activity
T2 construct: consistent with a mature, glycosylated form of the enzyme; TEV cleavage site (C); 9-His (C); 6-His (C); made in house; host or cells: High Five insect cells (baculovirus, p-DEST-8)
Excerpt: Protein expression and purification: The full length human NPP2 gene (NCBI accession #BC034961) followed by a C-terminal TEV cleavage site and a 9-His and 6-His purification tag was cloned and transferred into a p-DEST-8 baculovirus shuttle vector (Invitrogen), and bacmid DNA was generated by standard methods. The DNA sequence and correct transposition of the genes was verified by PCR, and recombinant full-length human ATX was expressed in High Five insect cells using standard methods. Three days post infection, the supernatant was adjusted to a final concentration of 50 mM Tris pH 8.0, 5 mM CaCl2, and 1 mM NiSO4 and stirred for 10 min. at room temperature. The resulting precipitant was removed by centrifugation (4,420×g for 30 minutes) and filtration ([…]), and the supernatant was concentrated using a Pall concentration system to approximately 250 mL. The cell media was passed over a nickel affinity column (5 mL, Fastflow resin), equilibrated in binding buffer (20 mM Tris pH 8.0, 300 mM NaCl, 20 mM imidazole, and 20% ethylene glycol) at 4° C., washed with 10 column volumes of binding buffer, and then eluted with binding buffer supplemented with 300 mM imidazole. Purified ATX was concentrated to approximately 10 mg mL^−1, and dialyzed into the appropriate assay buffer.
Steady-state enzyme assays: Phosphodiesterase activity of ATX (75-100 nM) was measured by absorbance (λ=405 nm) on a SpectraMax 250 plate reader at 25° C. with the substrate pNP-TMP [36]. Reactions were run in assay buffer containing 10% DMSO (v/v) and 1 mg mL^−1 BSA (hexachlorophene, merbromin, and bithionol) or without BSA (NSC 48300, 2,2′-Methylenebis(4-chlorophenol), eosin Y, and RJC 03297) in a total volume of […]. The uncatalyzed reaction rate was ≦10^−7 s^−1 (data not shown).
The steady-state rates (v) of product formation were obtained by fitting the time courses of absorbance or fluorescence change to linear functions. Absorbance units were converted to p-nitrophenylate concentration using ε405 of 18.5 mM^−1 cm^−1 [39] and a measured path length of 0.494 cm. FS-3 hydrolysis product formation was quantitated in arbitrary fluorescence units.
as §1, §2, §3, §4, §5, §6

[3] = test system: human melanoma cell line (A2058); assay: Boyden chamber cell migration assay, melanoma cells; format: cell-based; details: for inhibition of ATX-induced stimulation of melanoma cell motility: A2058, 50 nM ATX, 4 hours
Experimental: (§7) All cell media was supplemented with 10% (v/v) fetal calf serum (FCS) (Gibco) and 1% (v/v) L-glutamine (Gibco) and grown at 37° C. in a humidified atmosphere containing 5% CO2.
The assay chambers are divided by a gelatin-coated membrane with […] pores (NeuroProbe). […] The chambers were then incubated at 37° C. for 4 hours, after which the filters were removed, fixed in 100% methanol, stained with a DiffQuick solution, and mounted onto glass slides. Non-migrating cells were removed from the membrane by scraping the top surface. The cells were quantitated by counting the cell number per high powered field in the various wells. Treatments were compared using a chi squared test.

[4] = test system: adenocarcinoma cell motility; details: reported in ref. [40]; read-out: EC50, inhibition of adenocarcinoma cell motility; cited from earlier work
[5] = test system: A2058 melanoma cells; assay: Matrigel cell invasion assay, melanoma cells; format: cell-based, human; details: for inhibition of ATX-induced stimulation of melanoma cell invasion: A2058, 50 nM ATX
Experimental: as §7
Cell invasion assays: Matrigel matrix (1 mg/ml, Becton Dickenson) was added to […] gelatin-coated membranes placed in cell culture inserts (BD Falcon) and allowed to set for 24 hours at room temperature. The inserts were placed into companion 24 well plates (BD Falcon), and chemo-attractants (ATX ±inhibitors) and/or controls were added to the bottom of the wells. Cells (1×10^6) were added to the inserts and incubated for 3 hours at 37° C. Following incubation, the inserts were removed, fixed in 100% methanol, stained with DiffQuick solution, and mounted on glass slides. Non-invading cells were removed by scraping away the matrigel, and migrating cells were quantitated by counting cell number per high-powered field.

[6] = molecular target: T3, ATX lyso-PLD activity (Homo sapiens, UniProt Q13822); assay: Time course assay of ATX lyso-PLD activity (FS-3 fluorescent product) with or without 10 μM compound over 30 minutes; format: biochemical; details: 10 μM inhibitor, 30 minute interval, compared with NSC 48300
T3 construct: consistent with a mature, glycosylated form of the enzyme; TEV cleavage site (C); 9-His (C); 6-His (C); made in house; host or cells: High Five insect cells (baculovirus, p-DEST-8)
Experimental: C. Structure of hexachlorophene, merbromin. Bithionol and their analogs -2,2′-Methylenebis(4-chlorophenol), Eosin Y and RJC 03297, respectively. D. Structure of NSC 48300 and its analogs. […] The assay conditions are 300 nM ATX in the presence or absence of 10 μM compound over 30 minutes.
Inhibitor screen: High throughput screens were performed against two libraries: the GenPlus library of 960 compounds (NINDS Custom Collection, MicroSource Discovery systems) and the NCI Diversity Set (1990 compounds, see http://dtp.nci.nih.gov/branches/dscb/repo_open.html). The screens were performed at the Yale Center for Chemical Genomics utilizing a Tecan Aquarius robot in combination with an Aquarius liquid handler and a Freedom EVO Workstation. A V&P Scientific 384 pin tool transferred small molecules (10 mM stock) from library plates into the optically clear, 384 well assay plates, and an Aquarius liquid handling robot transferred protein into the individual wells. The assays were performed in a total volume of 50 μL in assay buffer (50 mM Tris, 140 mM NaCl, 1 mM MgCl2, and 5 mM CaCl2, pH 8.0). Absorbance of p-nitrophenylate, the product of ATX's PDE activity with pNP-TMP (discussed below) was measured at 405 nm over a period of 12 hours. To monitor lysophospholipase-D activity, the fluorescence of FS-3 (625 nM or 4 μM) was monitored (λex=480 nm, λem=535 nm) in assay buffer over a period of 30 minutes in the presence of 300 nM ATX and 10 μM compound. The assay was evaluated using a statistical Z′ analysis, a quantitative measure to determine assay robustness for single point analysis on a high throughput screening platform. The Z′ analysis was performed from 32 maximum control values (c+) and 32 minimum controls (c−) on each plate. Assays consistently performed with Z′ factors of 0.75-0.85, higher than the minimum 0.5 considered robust.
Inhibition of ATX lyso-PLD activity by several NSC48300 analogs was qualitatively compared in a time course assay by measuring the production of fluorescent product in the presence or absence of 10 µM inhibitor over a 30 minute interval.

[7] = ATX-dependent hydrolysis, fit to Eq. 1

Molecule: Oc1ccc(Cl)cc1Cc1cc(Cl)ccc1O [2,2′-Methylenebis(4-chlorophenol)]
- inhibition of ATX lysoPLD activity by GenPlus screen inhibitor analogs [1]: only Eosin Y (an analogue of merbromin) inhibits ATX lysoPLD activity
- type of inhibition of ATX PDE activity ([2]; substrate pNP-TMP): noncompetitively
- Ki ([2]; substrate pNP-TMP): 104 µM

Molecule: Cc1ccc2c(c1)C(=O)C1(O)CCN(c3ccccc3)C1=N2 (stereo not shown) [Blebbistatin]
- EC50 ([3]; A2058, 75 nM LPA, read-out: EC50, inhibition of cell motility with addition of LPA): 27 µM
- EC50 ([3]; A2058, in the presence of 50 nM ATX, read-out: EC50, inhibition of ATX-induced cell motility): 54 µM
- EC50 [4]: ~50 µM

Molecule: O=C1OC2(c3ccccc31)c1cc(Br)c(O)c(Br)c1Oc1c2cc(Br)c(O)c1Br [Eosin Y]
- inhibition of ATX lysoPLD activity by GenPlus screen inhibitor analogs [1]: inhibits ATX lysoPLD activity
- type of inhibition of ATX lysoPLD activity [1]: noncompetitive
- Ki [1]: 116 µM
- type of inhibition of ATX PDE activity ([2]; substrate pNP-TMP): competitively
- Ki ([2]; substrate pNP-TMP): 9.6 µM

Molecule: Oc1c(Cl)cc(Cl)c(Cl)c1Cc1c(O)c(Cl)cc(Cl)c1Cl [Hexachlorophene]
- type of inhibition of ATX lysoPLD activity [1]: competitive inhibitor
- Ki [1]: 68 µM
- inhibition of ATX-induced stimulation of melanoma cell motility [3]: inhibited in a dose-dependent manner
- type of inhibition of ATX PDE activity ([2]; substrate pNP-TMP): competitive inhibition
- α value from general steady-state inhibition equation (Eq. 2) ([2]; substrate pNP-TMP): > 45
- Ki ([2]; substrate pNP-TMP): 15 µM
- inhibition of ATX-induced stimulation of melanoma cell invasion [5]: inhibited in a dose-dependent manner

Molecule: O=C([O-])c1ccccc1-c1c2cc(Br)c(=O)cc-2oc2[c]([Hg+])c([O-])c(Br)cc12.[Na+].[Na+].[OH-] [Merbromin]
- inhibition of ATX-induced stimulation of melanoma cell motility [3]: inhibited in a dose-dependent manner
- type of inhibition of ATX PDE activity ([2]; substrate pNP-TMP): noncompetitive inhibition
- Ki ([2]; substrate pNP-TMP): 43 µM
- inhibition of ATX-induced stimulation of melanoma cell invasion [5]: inhibited in a dose-dependent manner

Molecule: O=[As](O)(O)c1ccc(-c2ccc([As](=O)(O)O)cc2)cc1 [NSC 13792]
- qualitative effect of structural change on inhibition of ATX lyso-PLD activity [6]: eliminates inhibition

Molecule: COC(=O)c1ccc(Cc2ccc(C(=O)OC)cc2)cc1 [NSC 86629]
- qualitative effect of structural change on inhibition of ATX lyso-PLD activity [6]: eliminates inhibition

Molecule: Cc1cn([C@H]2C[C@H](O)[C@@H](COP(=O)(O)Oc3ccc([N+](=O)[O-])cc3)O2)c(=O)[nH]c1=O [pNP-TMP, p-Nitrophenyl 5′-thymidine monophosphate]
- Km [2, 7]: 1400 µM
- kcat for pNP-TMP hydrolysis [2, 7]: 1.6 s^−1 and 1.6 (±0.1) s^−1

Molecule: Fluorescent Substrate-3 [FS-3]
- Km [1, 7]: 4.5 µM

Molecule: lysophosphatidic acid [LPA]
- increase in number of invading cells per hpf ([5]; A2058, ATX (50 nM) or LPA (75 nM)): 3.5 fold
